Measured values: patent publication US20260272891A1, “TREATMENT OF AUTOIMMUNE DISEASES AND CANCER WITH PROTEASE INHIBITORS” (Lundquist Institute for Biomedical Innovation at …, priority 2023, published 2026)

Assays:
[1] = system: PBMC stimulated by LPS; experiment: ELISA cytokines, frozen PBMCs stimulated by LPS; assay type: cell-based, human; conditions: for production of LPS-stimulated IL-6 / production of LPS-stimulated IL-10 / production of LPS-stimulated IL-23 / production of LPS-stimulated TNF-α: dose response, three concentrations, donors D186, D317, D93, versus LPS alone
Method: PBMC were purified by Ficoll-Hypaque gradient centrifugation (Pharmacia, Piscataway, NJ) and stimulated after freshly isolated as described, or cryopreserved in cryoprotective medium consisting of 90% fetal bovine serum (FBS) in combination with 10% dimethyl sulfoxide (DMSO) at 20 to 30 million cells per vial, and thawed for later stimulation as described.
Cytokine dose-response analysis was performed using linear regression model testing dose (ordinal variable) and adjusting for the individual donors.

[2] = system: Monocytes stimulated by LPS; experiment: ELISA cytokines, monocytes stimulated by LPS; assay type: cell-based, human; conditions: for IL-16 levels / IL-6 / IL-10 / IL-23 / TNF-α: 5000 ng/mL, LPS; for IL-6 / IL-10 / IL-23 / TNF-α: donors D186, D317, D93
From the text: For all experiments, peripheral blood mononuclear cells (PBMC) were isolated either from healthy blood donors as above or purchased from HemaCare as Leukopaks (D186, D317 and D93). PBMC were purified by Ficoll-Hypaque gradient centrifugation (Pharmacia, Piscataway, NJ) and stimulated after freshly isolated as described, or cryopreserved in cryoprotective medium consisting of 90% fetal bovine serum (FBS) in combination with 10% dimethyl sulfoxide (DMSO) at 20 to 30 million cells per vial, and thawed for later stimulation as described. For studies with enriched monocytes, PBMC were cultured in 1% FBS in RPMI 1640, and adhered to sterile plastic tissue culture plates for 1-2 hours; followed by washing off nonadherent PBMC. Remaining adherent monocytes were stimulated as described.
Isolated PBMCs were washed once in 1% FCS RPMI and re-suspended in RPMI-1640 (ThermoFisher Scientific) in 1-2% FCS RPMI. For monocyte isolation, 2×10^6 PBMCs per well were plated in 24-well tissue culture treated plate (ThermoFisher Scientific) at 1 ml each well. Monocytes were allowed to adhere in a 5% CO2 container at 37° C. for 2 hr. Nonadherent cells were removed by thorough washing 2 times with 1% FCS RPMI-1640.

[3] = system: T cells activated using beads; experiment: ELISA cytokines, T cell activation with beads; assay type: cell-based, human; conditions: 5000 ng/ml; for IFN-γ production / IL10 production / IL-4 levels / TNF-α production: activated cells (Bead); for IL-2 production: activated cells, compared to negative control
Method: Conditioned media were tested undiluted, or diluted 1:3 and 1:9 to determine tumor necrosis factor (TNF) α concentration.

[4] = system: 4T1 cells; experiment: Killing of 4T1 cells; assay type: cell-based, mouse
[5] = system: PBMCs; experiment: Flow cytometry, FSC versus SSC gating, percentage of PBMCs; conditions: for percentage of PBMCs (FSC versus SSC gating): 24 hrs
[6] = system: CD3+ T cells; experiment: Flow cytometry, Propidium iodide/CD3 staining to verify drug toxicity; conditions: for toxicity in gated CD3+ T cells compared to DMSO treatment only: three concentrations, donors D186, D317, D93
[7] = system: CD14+ cells for monocytes; experiment: Flow cytometry, Propidium iodide/CD14 staining to verify drug toxicity
[8] = target: SARS-COV-2 Mpro (Severe acute respiratory syndrome coronavirus 2, UniProt P0DTD1); conditions: cited from earlier work
[9] = system: T cells; conditions: cells from mice; cited from earlier work

Which results are given for CC(C)(C)[C@H](NC(=O)C(F)(F)F)C(=O)N1C[C@H]2[C@@H]([C@H]1C(=O)N[C@H](C#N)C[C@@H]1CCNC1=O)C2(C)C [NMV, nirmatrelvir]?
IL-23 levels ([1]; 5000 ng/ml, LPS, three donors): Two of three donors already had no detectable IL-23 levels; production of LPS-stimulated IL-6 [1]: diminished; production of LPS-stimulated IL-10 [1]: diminished; production of LPS-stimulated IL-23 [1]: diminished; production of LPS-stimulated TNF-α [1]: diminished; cytokines except IL-1β (IL-6, IL-10, IL-23, TNF-α) ([1]; frozen PBMCs stimulated with LPS): decrease; IL-16 levels ([2]; donors 317 and 93): increasing levels; IL-6 [2]: decrease; IL-10 [2]: decrease; IL-23 [2]: decrease; TNF-α [2]: decrease; IFN-γ production [3]: lower; IL10 production [3]: lower; IL-4 levels [3]: lower when compared to all groups with activated cells; TNF-α production [3]: low; TNF-α production ([3]; listed as NMR): lower; IL-2 production [3]: elevated; killing of 4T1 cells [4]: killed 4T1 cells in a dose responsive manner; percentage of PBMCs (FSC versus SSC gating) ([5]; Donor 93, 1250 ng): 74.8%; percentage of PBMCs (FSC versus SSC gating) ([5]; Donor 93, 2500 ng): 76.2%; percentage of PBMCs (FSC versus SSC gating) ([5]; Donor 93, 5000 ng): 54.6%; percentage of PBMCs (FSC versus SSC gating) ([5]; Donor 186, 1250 ng): 52.8%; percentage of PBMCs (FSC versus SSC gating) ([5]; Donor 186, 2500 ng): 44.8%; percentage of PBMCs (FSC versus SSC gating) ([5]; Donor 186, 5000 ng): 47.7%; percentage of PBMCs (FSC versus SSC gating) ([5]; Donor 317, 1250 ng): 55.4%; percentage of PBMCs (FSC versus SSC gating) ([5]; Donor 317, 2500 ng): 64.4%; percentage of PBMCs (FSC versus SSC gating) ([5]; Donor 317, 5000 ng): 55.9%; Peripheral Blood Mononuclear Cells' viability ([5]; all different concentrations, three donors): Do Not Affect; cells double positive for Propidium iodide (PI) and CD3 (dead cells) ([6]; Donor 93, 1250 ng): 19.2%; cells double positive for Propidium iodide (PI) and CD3 (dead cells) ([6]; Donor 93, 2500 ng): 17.1%; cells double positive for Propidium iodide (PI) and CD3 (dead cells) ([6]; Donor 93, 5000 ng): 16.0%; cells double positive for Propidium iodide (PI) and CD3 (dead cells) ([6]; Donor 186, 1250 ng): 29.9%; cells double positive for Propidium iodide (PI) and CD3 (dead cells) ([6]; Donor 186, 2500 ng): 31.1%; cells double positive for Propidium iodide (PI) and CD3 (dead cells) ([6]; Donor 186, 5000 ng): 28.5%; cells double positive for Propidium iodide (PI) and CD3 (dead cells) ([6]; Donor 317, 1250 ng): 17.9%; cells double positive for Propidium iodide (PI) and CD3 (dead cells) ([6]; Donor 317, 2500 ng): 16.9%; cells double positive for Propidium iodide (PI) and CD3 (dead cells) ([6]; Donor 317, 5000 ng): 17.1%; toxicity in gated CD3+ T cells compared to DMSO treatment only [6]: similar; cells double positive for Propidium iodide (PI) and CD14 (dead cells) ([7]; Donor 93, 1250 ng): 0.90%; cells double positive for Propidium iodide (PI) and CD14 (dead cells) ([7]; Donor 93, 2500 ng): 0.74%; cells double positive for Propidium iodide (PI) and CD14 (dead cells) ([7]; Donor 93, 5000 ng): 0.64%; cells double positive for Propidium iodide (PI) and CD14 (dead cells) ([7]; Donor 186, 1250 ng): 0.75%; cells double positive for Propidium iodide (PI) and CD14 (dead cells) ([7]; Donor 186, 2500 ng): 1.28%; cells double positive for Propidium iodide (PI) and CD14 (dead cells) ([7]; Donor 186, 5000 ng): 0.74%; cells double positive for Propidium iodide (PI) and CD14 (dead cells) ([7]; Donor 317, 1250 ng): 0.37%; cells double positive for Propidium iodide (PI) and CD14 (dead cells) ([7]; Donor 317, 2500 ng): 0.31%; cells double positive for Propidium iodide (PI) and CD14 (dead cells) ([7]; Donor 317, 5000 ng): 0.32%

With CC(C)c1nc(CN(C)C(=O)N[C@H](C(=O)N[C@@H](Cc2ccccc2)C[C@H](O)[C@H](Cc2ccccc2)NC(=O)OCc2cncs2)C(C)C)cs1 [RTV, ritonavir] as the compound, how does the “production of LPS-stimulated IL-6” value [1] read?
The value was “no effect”.

What about the “production of LPS-stimulated IL-10” value [1] of the same compound?
Its value is “no effect”.

What about the “production of LPS-stimulated IL-23” value [1] of the same compound?
The value was “no effect”.

What about the “production of LPS-stimulated TNF-α” value [1] of the same compound?
The value was “no effect”.

And the IL-16 levels ([2]; donor186)?
The IL-16 levels was “Slightly decreased”.

And the IL-16 levels ([2]; donors 317 and 93)?
The IL-16 levels was “increasing levels”.

What about the IL-6 [2] of the same compound?
The IL-6 was “decrease”.

What about the IL-10 [2] of the same compound?
The IL-10 was “decrease”.

What about the IL-23 [2] of the same compound?
Its IL-23 is “decrease”.

And the TNF-α [2]?
The TNF-α was “decrease”.

And the IL-1β ([2]; monocytes, 5000 ng/ml)?
The IL-1β was “decreased”.

What about the IFN-γ production [3] of the same compound?
The IFN-γ production was “higher levels”.

What about the IL10 production [3] of the same compound?
The IL10 production was “higher”.

What about the IL-4 levels [3] of the same compound?
The IL-4 levels was “higher”.

And the TNF-α production [3]?
The TNF-α production was “high levels”.

And the IL-2 production [3]?
Its IL-2 production is “elevated”.

What about the “killing of 4T1 cells” value [4] of the same compound?
Its value is “killed 4T1 cells in a dose responsive manner”.

What about the “activity against SARS-COV-2 Mpro” value [8] of the same compound?
The value was “lacks activity”.

What about the “IL2, IFN-gamma and TNF-alpha secretion” value [9] of the same compound?
The value was “decreasing”.

What about the “percentage of PBMCs (FSC versus SSC gating)” value (shortened to “percentage of PBMCs”) ([5]; Donor 93, 1250 ng) of the same compound?
Its value is 60.4%.

And the “percentage of PBMCs” value ([5]; Donor 93, 2500 ng)?
Its value is 62.9%.

What about the “percentage of PBMCs” value ([5]; Donor 93, 5000 ng) of the same compound?
Its value is 55.9%.

What about the “percentage of PBMCs” value ([5]; Donor 186, 1250 ng) of the same compound?
The value was 48.0%.

And the “percentage of PBMCs” value ([5]; Donor 186, 2500 ng)?
The value was 51.3%.

And the “percentage of PBMCs” value ([5]; Donor 186, 5000 ng)?
Its value is 44.9%.

And the “percentage of PBMCs” value ([5]; Donor 317, 1250 ng)?
Its value is 61.3%.

What about the “percentage of PBMCs” value ([5]; Donor 317, 2500 ng) of the same compound?
The value was 56.2%.

What about the “percentage of PBMCs” value ([5]; Donor 317, 5000 ng) of the same compound?
Its value is 57.4%.

What about the “cells double positive for Propidium iodide (PI) and CD3 (dead cells)” value ([6]; Donor 93, 1250 ng) of the same compound?
The value was 19.5%.

What about the “cells double positive for Propidium iodide (PI) and CD3 (dead cells)” value ([6]; Donor 93, 2500 ng) of the same compound?
Its value is 19.8%.

What about the “cells double positive for Propidium iodide (PI) and CD3 (dead cells)” value ([6]; Donor 93, 5000 ng) of the same compound?
Its value is 19.5%.

What about the “cells double positive for Propidium iodide (PI) and CD3 (dead cells)” value ([6]; Donor 186, 1250 ng) of the same compound?
The value was 27.9%.

What about the “cells double positive for Propidium iodide (PI) and CD3 (dead cells)” value ([6]; Donor 186, 2500 ng) of the same compound?
The value was 28.9%.

What about the “cells double positive for Propidium iodide (PI) and CD3 (dead cells)” value ([6]; Donor 186, 5000 ng) of the same compound?
Its value is 28.6%.

What about the “cells double positive for Propidium iodide (PI) and CD3 (dead cells)” value ([6]; Donor 317, 1250 ng) of the same compound?
Its value is 18.1%.

And the “cells double positive for Propidium iodide (PI) and CD3 (dead cells)” value ([6]; Donor 317, 2500 ng)?
The value was 17.5%.

And the “cells double positive for Propidium iodide (PI) and CD3 (dead cells)” value ([6]; Donor 317, 5000 ng)?
Its value is 17.8%.

What about the “toxicity in gated CD3+ T cells compared to DMSO treatment only” value [6] of the same compound?
Its value is “similar”.

What about the “cells double positive for Propidium iodide (PI) and CD14 (dead cells)” value ([7]; Donor 93, 1250 ng) of the same compound?
Its value is 0.90%.

What about the “cells double positive for Propidium iodide (PI) and CD14 (dead cells)” value ([7]; Donor 93, 2500 ng) of the same compound?
Its value is 1.12%.

What about the “cells double positive for Propidium iodide (PI) and CD14 (dead cells)” value ([7]; Donor 93, 5000 ng) of the same compound?
The value was 0.81%.

What about the “cells double positive for Propidium iodide (PI) and CD14 (dead cells)” value ([7]; Donor 186, 1250 ng) of the same compound?
The value was 2.14%.

What about the “cells double positive for Propidium iodide (PI) and CD14 (dead cells)” value ([7]; Donor 186, 2500 ng) of the same compound?
Its value is 1.71%.

And the “cells double positive for Propidium iodide (PI) and CD14 (dead cells)” value ([7]; Donor 186, 5000 ng)?
Its value is 1.71%.

And the “cells double positive for Propidium iodide (PI) and CD14 (dead cells)” value ([7]; Donor 317, 1250 ng)?
Its value is 0.42%.

What about the “cells double positive for Propidium iodide (PI) and CD14 (dead cells)” value ([7]; Donor 317, 2500 ng) of the same compound?
The value was 0.38%.

And the “cells double positive for Propidium iodide (PI) and CD14 (dead cells)” value ([7]; Donor 317, 5000 ng)?
Its value is 0.44%.
